Holding throughout (assay type): biochemical
The target in test [1] is T1, ENPP1 (Homo sapiens, UniProt P22413).
T1 sequence (P22413 1-925): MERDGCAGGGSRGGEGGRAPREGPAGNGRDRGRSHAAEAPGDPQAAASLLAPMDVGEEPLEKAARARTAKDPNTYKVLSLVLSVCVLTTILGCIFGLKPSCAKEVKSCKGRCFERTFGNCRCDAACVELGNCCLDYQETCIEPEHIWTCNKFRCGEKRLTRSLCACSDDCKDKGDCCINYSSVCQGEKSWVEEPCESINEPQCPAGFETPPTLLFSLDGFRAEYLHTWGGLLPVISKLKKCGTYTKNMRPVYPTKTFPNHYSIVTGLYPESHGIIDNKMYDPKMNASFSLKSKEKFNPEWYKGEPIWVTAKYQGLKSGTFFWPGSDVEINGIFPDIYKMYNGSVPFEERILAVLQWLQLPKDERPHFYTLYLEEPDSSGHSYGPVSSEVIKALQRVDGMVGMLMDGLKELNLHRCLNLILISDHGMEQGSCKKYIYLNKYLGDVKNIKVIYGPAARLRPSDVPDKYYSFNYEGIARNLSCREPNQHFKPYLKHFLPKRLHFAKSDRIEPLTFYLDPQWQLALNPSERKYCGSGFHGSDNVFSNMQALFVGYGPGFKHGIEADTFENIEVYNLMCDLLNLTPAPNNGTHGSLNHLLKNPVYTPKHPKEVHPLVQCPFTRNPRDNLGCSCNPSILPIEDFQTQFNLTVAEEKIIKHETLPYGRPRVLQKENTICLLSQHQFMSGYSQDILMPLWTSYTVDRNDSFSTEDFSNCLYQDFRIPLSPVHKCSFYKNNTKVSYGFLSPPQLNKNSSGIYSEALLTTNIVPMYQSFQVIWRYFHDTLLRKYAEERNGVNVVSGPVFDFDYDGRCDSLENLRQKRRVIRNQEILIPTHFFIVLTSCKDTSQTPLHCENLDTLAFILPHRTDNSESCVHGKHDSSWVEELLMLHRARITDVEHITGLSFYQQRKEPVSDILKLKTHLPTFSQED
Put plainly: ENPP1 enzyme assay with AMP-pNP substrate (hydrolysis of ATP analog). The note with it: AMP-pNP substrate (ATP analog); Ki from IC50 by Cheng-Prusoff; read-out: ENPP1 Inhibition _AMP-pNP: Ki. Summed up:
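Reactions ran 20 min at 37 °C, pH 8.5 Tris buffer with NaCl, CaCl2, ZnCl2, using 300 µM AMP-pNP and 60 ng/well recombinant human ENPP1; inhibitor range 10 µM–30 pM, duplicates.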

The target in test [2] is T1, ENPP1. Put plainly: Indirect quantitation of 2',3'-cGAMP hydrolysis (AMP-Glo Assay kit). Particulars: cGAMP substrate; Ki from IC50 by Cheng-Prusoff; read-out: ENPP1 Inhibition -cGAMP: Ki.
Test [3] has as its target T1, ENPP1. As to the kind of experiment: Substrate selectivity ratio, inhibition of cGAMP hydrolysis versus ATP hydrolysis. The note with it: ratio Ki AMP-pNP / Ki cGAMP. How it is done: The selectivity ratios for inhibition of cGAMP hydrolysis versus ATP hydrolysis were then calculated as follows: […]

Consider 24 molecules from US20230183239A1, “ECTONUCLEOTIDE PYROPHOSPHATASE-PHOSPHODIESTERASE 1 (ENPP-1) INHIBITORS AND USES THEREOF” (AbbVie Inc., priority 2017, published 2023).

Take `COc1ccc2c(Sc3ccc(NS(N)(=O)=O)cc3)ccnc2c1` [Example 302, N-(4-((7-methoxyquinolin-4-yl)thio)phenyl)sulfamide]: the figures for the Ki on ENPP1 [1] and at ENPP1 [2] were 100 to 1000 nM and below 100 nM, respectively. Also, the “Substrate Selectivity: Ki_AMP-pNP/Ki_cGAMP” value (“Substrate Selectivity” below) on ENPP1 [3] is above 13.0.
The matching figures for `COc1cc2nccc(Oc3ccc(S(N)(=O)=O)cc3)c2cc1OC` [Example 303, 4-((6,7-dimethoxyquinolin-4-yl)oxy)benzenesulfonamide]: 100 to 1000 nM, below 100 nM and 41.6.
For `NS(=O)(=O)c1ccc(CNc2ncnc3cc(F)ccc23)cc1` [Example 304, 4-(((7-fluoroquinazolin-4-yl)amino)methyl)benzenesulfonamide] the same measures were above 1000 nM, below 100 nM and above 34.0.
Take `COc1ccc2c(-c3ccc4c(c3)CN(S(N)(=O)=O)CC4)ccnc2c1` [Example 305, 7-(7-methoxyquinolin-4-yl)-3,4-dihydroisoquinoline-2(1H)-sulfonamide]: the Ki at ENPP1 [1] is 100 to 1000 nM; on ENPP1 [2], below 100 nM. The “Substrate Selectivity” value at ENPP1 [3] was above 13.0.
The matching figures for `COc1ccc2ncnc(NCc3ccc(S(N)(=O)=O)cc3)c2c1` [Example 306, 4-(((6-methoxyquinazolin-4-yl)amino)methyl)benzenesulfonamide]: 100 to 1000 nM, below 100 nM and 22.4.
As for `COc1cc2nccc(NC3CCC(NS(N)(=O)=O)CC3)c2cc1OC` (stereo not drawn) [Example 307, N-(4-((6,7-dimethoxyquinolin-4-yl)amino)cyclohexyl)sulfamide], the Ki is above 1000 nM at ENPP1 [1] and 100 to 1000 nM at ENPP1 [2]. Also, on ENPP1 [3], the “Substrate Selectivity” value is recorded as above 15.5.
For `COc1ccc2c(Oc3ccc(NS(N)(=O)=O)c(C)c3)ccnc2c1` [Example 308, N-(4-((7-methoxyquinolin-4-yl)oxy)-2-methylphenyl)sulfamide] the same measures were 100 to 1000 nM, below 100 nM and 28.4.
The matching figures for `NS(=O)(=O)N1CCc2ccc(-c3ccnc4cc(F)ccc34)cc2C1` [Example 311, 7-(7-fluoroquinolin-4-yl)-3,4-dihydroisoquinoline-2(1H)-sulfonamide]: above 1000 nM, below 100 nM and above 133.
Regarding `COc1ccc2c(Oc3ccc(CS(N)(=O)=O)cc3)ccnc2c1` [Example 312, (4-((7-methoxyquinolin-4-yl)oxy)phenyl)methanesulfonamide], the figures for the Ki on ENPP1 [1] and on ENPP1 [2] were 100 to 1000 nM and below 100 nM, respectively. Further, at ENPP1 [3], the “Substrate Selectivity” value is recorded as 28.2.
The matching figures for `COc1cc2nccc(-n3ccc4cc(NS(N)(=O)=O)ccc43)c2cc1OC` [Example 313, N-(1-(6,7-dimethoxyquinolin-4-yl)-1H-indol-5-yl)sulfamide]: above 1000 nM, below 100 nM and above 38.8.
Regarding `COc1cc2nccc(-c3ccc(CNS(N)(=O)=O)nc3)c2cc1OC` [Example 314, N-((5-(6,7-dimethoxyquinolin-4-yl)pyridin-2-yl)methyl)sulfamide], the values for the Ki at ENPP1 [1] and on ENPP1 [2] were above 1000 nM and below 100 nM, respectively. Moreover, at ENPP1 [3], the “Substrate Selectivity” value amounted to 35.7.
The matching figures for `COc1ccc2c(Oc3ccc(NS(N)(=O)=O)c(C#N)c3)ccnc2c1` [Example 315, N-(2-cyano-4-((7-methoxyquinolin-4-yl)oxy)phenyl)sulfamide]: above 1000 nM, below 100 nM and above 49.7.
For `COc1cc2ncc(C#N)c(-c3ccc4c(c3)CN(S(N)(=O)=O)CC4)c2cc1F` [Example 316, 7-(3-cyano-6-fluoro-7-methoxyquinolin-4-yl)-3,4-dihydroisoquinoline-2(1H)-sulfonamide] the same measures were above 1000 nM, below 100 nM and above 533.
As for `COc1ccc2c(Oc3ccc(NS(N)(=O)=O)cc3C(F)(F)F)ccnc2c1` [Example 317, N-(4-((7-methoxyquinolin-4-yl)oxy)-3-(trifluoromethyl)phenyl)sulfamide], the inhibition constant (Ki) on ENPP1 [1] is above 1000 nM; on ENPP1 [2], 100 to 1000 nM. Also, the “Substrate Selectivity” value at ENPP1 [3] is listed as above 49.9.
As for `COc1ccc2c(Oc3ccc4c(c3)CCCN4S(N)(=O)=O)ccnc2c1` [Example 319, 6-((7-methoxyquinolin-4-yl)oxy)-3,4-dihydroquinoline-1(2H)-sulfonamide], the Ki on ENPP1 [1] is above 1000 nM; on ENPP1 [2], below 100 nM. Besides, the “Substrate Selectivity” value on ENPP1 [3] was above 35.9.
For `COc1cc2nccc(Oc3ccc(NS(N)(=O)=O)cc3)c2cn1` [Example 330, N-(4-((7-methoxy-1,6-naphthyridin-4-yl)oxy)phenyl)sulfamide] the same measures were 100 to 1000 nM, below 100 nM and 35.
For `COc1cc2ncnc(N3CCC(CCN)CC3)c2cc1OC` [Example 334, 2-(1-(6,7-dimethoxyquinazolin-4-yl)piperidin-4-yl)ethan-1-amine] the same measures were above 1000 nM, below 100 nM and above 414.
The matching figures for `COc1cc2ncnc(N3CCC(CNS(N)(=O)=O)CC3)c2cc1OC` [Example 339, N-((1-(6,7-dimethoxyquinazolin-4-yl)piperidin-4-yl)methyl)sulfamide]: 100 to 1000 nM, below 100 nM and 38.5.
In the case of `COc1ccc2c(Oc3ccc(N)cc3)ccnc2c1` [Example 342, 4-((7-methoxyquinolin-4-yl)oxy)aniline], the Ki on ENPP1 [1] was above 1000 nM; on ENPP1 [2], 100 to 1000 nM. Further, on ENPP1 [3], the “Substrate Selectivity” value is above 64.9.
Consider `COc1ccc2c(Oc3ncc(NS(N)(=O)=O)cc3C)ccnc2c1` [Example 351, N-(6-((7-methoxyquinolin-4-yl)oxy)-5-methylpyridin-3-yl)sulfamide], for which the figures for the Ki on ENPP1 [1] and on ENPP1 [2] were above 1000 nM and below 100 nM, respectively. In addition, the “Substrate Selectivity” value at ENPP1 [3] was 55.
The matching figures for `NS(=O)(=O)c1ccc(Oc2ccnc3[nH]c(=O)ccc23)cc1` [Example 352, 4-((7-oxo-7,8-dihydro-1,8-naphthyridin-4-yl)oxy)benzenesulfonamide]: 100 to 1000 nM, below 100 nM and 43.
As to `COc1ccc2c(Oc3ccc(NS(N)(=O)=O)cc3C#N)ccnc2c1` [Example 353], the Ki is above 1000 nM on ENPP1 [1] and 100 to 1000 nM at ENPP1 [2]. For the same molecule, the “Substrate Selectivity” value at ENPP1 [3] was above 74.
Regarding `COc1ccc2c(-c3ccc(CNS(N)(=O)=O)nc3)ccnc2c1` [Example 354, N-((5-(7-methoxyquinolin-4-yl)pyridin-2-yl)methyl)sulfamide], the Ki on ENPP1 [1] was 100 to 1000 nM; at ENPP1 [2], below 100 nM. The “Substrate Selectivity” value at ENPP1 [3] was 54.
For `COc1ccc2nccc(Oc3ccc(S(N)(=O)=O)cc3)c2c1` [Example 355, 4-((6-methoxyquinolin-4-yl)oxy)benzenesulfonamide] the same measures were above 1000 nM, below 100 nM and above 53.

As a reminder, the Ki is the dissociation constant of the complex between target and ligand, obtained from inhibition or displacement.
